{"source": "patent US20220031713A1", "about": "“METHODS OF TREATING MYELOPROLIFERATIVE DISORDERS” (Impact Biomedicines, Inc., priority 2018, published 2022)", "key": {"myelofibrosis [1]": {"test_system": "myelofibrosis", "settings": "week 24, subgroup with prior ruxolitinib, cited from earlier work"}, "MF": {"test_system": "MF", "settings": "week 24; previous ruxolitinib treatment; cited from earlier work"}, "JAK2V617F [2]": {"test_system": "JAK2V617F", "settings": "non-clinical models of MF; cited from earlier work"}, "circulating cytokines": {"test_system": "circulating cytokines", "settings": "MF patients not previously treated with JAK inhibitors; cited from earlier work"}, "[3]": {"test_system": "hematopoietic progenitors isolated from myeloproliferative neoplasm (MPN) patients", "assay": "Erythroid colony formation of hematopoietic progenitors", "assay_type": "cell-based, human"}, "[4]": {"test_system": "cellular proliferation driven by mutant JAK2 or mutant MPL", "assay": "Cellular proliferation driven by mutant JAK2 or mutant MPL", "assay_type": "cell-based", "settings": "cellular assays"}, "JAK2V617F [5]": {"test_system": "JAK2V617F", "settings": "MF patients; cited from earlier work"}, "T cell development": {"test_system": "T cell development", "settings": "non-clinical data; cited from earlier work"}, "[6]": {"test_system": "PD-L1 expression in lymphoma tumor cells", "settings": "cited from earlier work"}, "[7]": {"test_system": "intermediate-2 or high-risk MF", "settings": "cited from earlier work"}, "[8]": {"test_system": "graft-versus-host disease (GVHD)", "settings": "cited from earlier work"}, "[9]": {"test_system": "intermediate-1 with symptoms, intermediate-2 or high-risk MPN-associated myelofibrosis", "settings": "cited from earlier work"}, "JAK2 signaling": {"test_system": "JAK2 signaling", "assay": "Cellular assay of JAK2 signaling", "assay_type": "cell-based", "settings": "cellular assays"}, "[10]": {"test_system": "cells expressing constitutively active JAK2", "assay": "Apoptosis in cells expressing constitutively active JAK2", "assay_type": "cell-based", "settings": "cellular assays"}, "bone marrow fibrosis": {"test_system": "bone marrow fibrosis", "settings": "at 24 months; cited from earlier work"}, "[11]": {"test_system": "intermediate or high-risk MPN-associated myelofibrosis (MF)", "settings": "at 24 weeks, COMFORT-I; cited from earlier work"}, "[12]": {"test_system": "intermediate or high-risk MPN-associated myelofibrosis (MF)", "settings": "cited from earlier work"}, "[13]": {"test_system": "PD-L1 expression in MPN myeloid cells", "settings": "cited from earlier work"}, "[14]": {"test_system": "MPN-associated myelofibrosis", "settings": "cited from earlier work"}, "myelofibrosis [15]": {"test_system": "myelofibrosis", "settings": "cited from earlier work"}, "[16]": {"settings": "patients previously treated with ruxolitinib"}, "[17]": {"settings": "ruxolitinib therapy, compared with BAT"}}, "note": "Read-outs that look alike come from different tables or passages of the source.", "data": [{"molecule": "C1=C/COCc2cc(ccc2OCCN2CCCC2)Nc2nccc(n2)-c2cccc(c2)COC/1", "note": "[pacritinib]", "values": [{"measurement": "subjects with spleen volume response of 35% or more", "setting": "myelofibrosis [1]; 200 mg twice daily", "result": 13, "unit": "%"}, {"measurement": "subjects with spleen volume response of 35% or more", "setting": "myelofibrosis [1]; 400 mg once daily", "result": 6, "unit": "%"}]}, {"molecule": "N#CCNC(=O)c1ccc(-c2ccnc(Nc3ccc(N4CCOCC4)cc3)n2)cc1", "note": "[momelotinib]", "values": [{"measurement": "subjects with spleen volume response of 35% or more", "setting": "MF", "result": 7, "unit": "%"}]}, {"molecule": "Cc1cnc(Nc2ccc(OCCN3CCCC3)cc2)nc1Nc1cccc(S(=O)(=O)NC(C)(C)C)c1", "note": "[Compound I, fedratinib]", "values": [{"measurement": "JAK2V617F frequency", "setting": "JAK2V617F [2]", "result": "decrease JAK2V617F frequency"}, {"measurement": "effect on circulating cytokines", "setting": "circulating cytokines", "result": "modulate circulating cytokines"}, {"measurement": "erythroid colony formation of hematopoietic progenitors", "setting": "[3]", "result": "inhibits erythroid colony formation"}, {"measurement": "effect on cellular proliferation driven by mutant JAK2 or mutant MPL", "setting": "[4]", "result": "inhibits"}, {"measurement": "JAK2V617F frequency", "setting": "JAK2V617F [5]", "result": "decrease JAK2V617F frequency"}, {"measurement": "effect on T cell development", "setting": "T cell development", "result": "weak effect"}, {"measurement": "effect on PD-L1 expression", "setting": "[6]", "result": "modulate PD-L1 expression"}, {"measurement": "TEAE diarrhea", "setting": "[7]; 400 mg daily, all grades", "result": 65.6, "unit": "%"}, {"measurement": "TEAE fatigue", "setting": "[7]; 400 mg daily, all grades", "result": 15.6, "unit": "%"}, {"measurement": "TEAE nausea", "setting": "[7]; 400 mg daily, all grades", "result": 63.5, "unit": "%"}, {"measurement": "TEAE peripheral edema", "setting": "[7]; 400 mg daily, all grades", "result": 15.6, "unit": "%"}, {"measurement": "TEAE vomiting", "setting": "[7]; 400 mg daily, all grades", "result": 41.7, "unit": "%"}, {"measurement": "TEAE anemia (G3 and G4)", "setting": "[7]; 400 mg daily", "result": 42.7, "unit": "%"}, {"measurement": "response rate at Cycle 6 as recommended by IWG-MRT (regardless of confirmation)", "setting": "[7]; 400 mg daily", "result": 46.9, "unit": "%"}, {"measurement": "response rate per primary endpoint (≥35% reduction in spleen volume to End of Cycle 6, confirmed 4 weeks later by MRI)", "setting": "[7]; 400 mg daily", "result": 36.5, "unit": "%"}, {"measurement": "TEAEs leading to permanent treatment discontinuation", "setting": "[7]; 400 mg", "result": 27.1, "unit": "%"}, {"measurement": "subjects achieving a ≥50% reduction in TSS", "setting": "[7]; 400 mg", "result": 36.3, "unit": "%"}, {"measurement": "subjects reporting Grade 3 or 4 TEAEs", "setting": "[7]; 400 mg", "result": 70.8, "unit": "%"}, {"measurement": "treatment-emergent serious adverse events (SAEs)", "setting": "[7]; 400 mg", "result": 38.5, "unit": "%"}, {"measurement": "response rate at Cycle 6 as recommended by IWG-MRT (regardless of confirmation)", "setting": "[7]; 500 mg daily", "result": 49.5, "unit": "%"}, {"measurement": "response rate per primary endpoint (≥35% reduction in spleen volume to End of Cycle 6, confirmed 4 weeks later by MRI)", "setting": "[7]; 500 mg daily", "result": 40.2, "unit": "%"}, {"measurement": "TEAEs leading to permanent treatment discontinuation", "setting": "[7]; 500 mg", "result": 36.1, "unit": "%"}, {"measurement": "subjects achieving a ≥50% reduction in TSS", "setting": "[7]; 500 mg", "result": 34.1, "unit": "%"}, {"measurement": "subjects reporting Grade 3 or 4 TEAEs", "setting": "[7]; 500 mg", "result": 78.4, "unit": "%"}, {"measurement": "treatment-emergent serious adverse events (SAEs)", "setting": "[7]; 500 mg", "result": 44.3, "unit": "%"}, {"measurement": "median duration of response (≥35% reduction in spleen volume)", "setting": "[7]; responders from both active groups (400-mg and 500-mg)", "result": 10.4, "unit": "months"}, {"measurement": "effect on GVHD", "setting": "[8]; non-clinical data", "result": "weak effect"}, {"measurement": "patients with at least 1 TEAE (all grades)", "setting": "[9]; 97 patients", "result": 97, "unit": "patients"}, {"measurement": "TEAE anemia", "setting": "[9]; all grades", "result": 48.5, "unit": "%"}, {"measurement": "TEAE diarrhea", "setting": "[9]; all grades", "result": 61.9, "unit": "%"}, {"measurement": "TEAE nausea", "setting": "[9]; all grades", "result": 55.7, "unit": "%"}, {"measurement": "TEAE thrombocytopenia", "setting": "[9]; all grades", "result": 26.8, "unit": "%"}, {"measurement": "TEAE vomiting", "setting": "[9]; all grades", "result": 41.2, "unit": "%"}, {"measurement": "Grade 3 or 4 anemia", "setting": "[9]; in vivo", "result": "Thirty-eight and one-tenth"}, {"measurement": "Grade 3 or 4 thrombocytopenia", "setting": "[9]; in vivo", "result": 21.6, "unit": "%"}, {"measurement": "grade 5 hematologic TEAEs", "setting": "[9]; in vivo", "result": "No grade 5 hematologic TEAEs were reported"}, {"measurement": "patients reporting Grade 3 or 4 TEAEs", "setting": "[9]; in vivo", "result": 62.9, "unit": "%"}, {"measurement": "overall spleen response rate (≥35% reduction from baseline in spleen volume to the End of Cycle 6)", "setting": "[9]; [16]", "result": 55.4, "unit": "%"}, {"measurement": "subjects achieving a ≥50% reduction in TSS", "setting": "[9]; [16]", "result": 25.6, "unit": "%"}, {"measurement": "effect on JAK2 signaling", "setting": "JAK2 signaling", "result": "inhibits JAK2 signaling"}, {"measurement": "apoptosis in cells expressing constitutively active JAK2", "setting": "[10]", "result": "induces apoptosis"}]}, {"molecule": "N#CC[C@H](C1CCCC1)n1cc(-c2ncnc3[nH]ccc23)cn1", "note": "[ruxolitinib, (3R)-3-cyclopentyl-3-[4-(7H-pyrrolo[2,3-d]pyrimidin-4-yl)pyrazol-1-yl]propanenitrile]", "values": [{"measurement": "subjects with improvement in bone marrow fibrosis", "setting": "bone marrow fibrosis", "result": 15, "unit": "%"}, {"measurement": "proportion of subjects exhibiting a ≥35% reduction in spleen volume as measured by MRI", "setting": "[11]", "result": 41.9, "unit": "%"}, {"measurement": "subjects with >50% improvement in MFSAF Total Symptom Score (TSS)", "setting": "[11]", "result": 45.9, "unit": "%"}, {"measurement": "proportion of subjects exhibiting a ≥35% reduction in spleen volume as measured by MRI", "setting": "[12]; at 48 weeks, COMFORT-II", "result": 28.5, "unit": "%"}, {"measurement": "Kaplan-Meier estimated probability of survival", "setting": "[12]; at 144 weeks, COMFORT-II 3-year follow-up", "result": 81, "unit": "%"}, {"measurement": "effect on PD-L1 expression", "setting": "[13]", "result": "modulate PD-L1 expression"}, {"measurement": "time after therapy initiation within which responses are typically observed", "setting": "[14]; in vivo", "result": "3-6 months"}, {"measurement": "treatment-associated anemia", "setting": "[14]; [17]", "result": 40.4, "unit": "%"}, {"measurement": "treatment-associated thrombocytopenia", "setting": "[14]; [17]", "result": 44.5, "unit": "%"}, {"measurement": "effect on graft-versus-host disease (GVHD)", "setting": "[8]; preclinical and clinical data", "result": "suppressing graft-versus-host disease"}, {"measurement": "median survival of relapsed and refractory patients who discontinued ruxolitinib", "setting": "myelofibrosis [15]; after ruxolitinib discontinuation", "result": 6, "unit": "months"}, {"measurement": "patients remaining alive", "setting": "myelofibrosis [15]; median follow-up of 10 months from stopping ruxolitinib", "result": 34, "unit": "%"}]}]}
